Laboratory results taken from patent US9725468B2, “C5-spiro iminothiazine dioxides as BACE inhibitors, compositions, and their use” (Merck Sharp & Dohme Corp., priority 2013, dated 2017).

How the values were obtained:
[1] = target: T1, purified human autoBACE-2 (Homo sapiens, UniProt Q9Y5Z0); assay: BACE-2 Assay (BACE-HTRF assay); format: biochemical; conditions: Ki calculated from IC50 using the Cheng-Prusoff equation; QSY7-EISEVNLDAEFC-Eu-amide substrate 200 nM, pH 5.0; read-out: BACE2 Ki
T1 sequence (Q9Y5Z0 63-473 limits assumed): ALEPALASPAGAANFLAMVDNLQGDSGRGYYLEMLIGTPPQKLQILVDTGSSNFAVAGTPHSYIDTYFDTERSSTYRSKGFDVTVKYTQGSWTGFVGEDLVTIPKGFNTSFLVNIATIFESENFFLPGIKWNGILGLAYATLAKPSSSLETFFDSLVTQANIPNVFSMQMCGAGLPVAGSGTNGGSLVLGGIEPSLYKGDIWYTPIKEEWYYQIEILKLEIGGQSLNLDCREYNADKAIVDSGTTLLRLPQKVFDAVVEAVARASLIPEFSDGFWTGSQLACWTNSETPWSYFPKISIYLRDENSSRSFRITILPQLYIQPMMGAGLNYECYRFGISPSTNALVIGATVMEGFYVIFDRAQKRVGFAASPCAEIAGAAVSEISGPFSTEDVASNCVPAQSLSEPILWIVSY
Method: Inhibitor ICsos at purified human autoBACE-2 are determined in a time-resolved endpoint proteolysis assay that measures hydrolysis of the QSY7-EISEVNLDAEFC-Eu-amide FRET peptide substrate (BACE-HTRF assay). BACE-mediated hydrolysis of this peptide results in an increase in relative fluorescence (RFU) at 620 nm after excitation with 320 nm light. Inhibitor compounds, prepared at 3× the desired final concentration in 1×BACE assay buffer (20 mM sodium acetate pH 5.0, 10% glycerol, 0.1% Brij-35) supplemented with 7.5% DMSO are preincubated with an equal volume of autoBACE-2 enzyme diluted in 1×BACE assay buffer (final enzyme concentration 1 nM) in black 384-well NUNC plates for 30 minutes at 30° C. The assay is initiated by addition of an equal volume of the QSY7-EISEVNLDAEFC-Eu-amide substrate (200 nM final concentration, […]) prepared in 1×BACE assay buffer supplemented with 7.5% DMSO and incubated for 90 minutes at 30° C. DMSO is present at 5% final concentration in the assay. Following laser excitation of sample wells at 320 nm, the fluorescence signal at 620 nm is collected for 400 ms following a 50 μs delay on a RUBYstar HTRF plate reader (BMG Labtechnologies). Raw RFU data is normalized to maximum (1.0 nM BACE/DMSO) and minimum (no enzyme/DMSO) RFU values. IC50s are determined by nonlinear regression analysis (sigmoidal dose response, variable slope) of percent inhibition data with minimum and maximum values set to 0 and 100 percent respectively. Similar IC50s are obtained when using raw RFU data. The Ki values are calculated from the IC50 using the Cheng-Prusoff equation.

[2] = target: soluble human BACE1 catalytic domain (Homo sapiens, UniProt P56817); assay: BACE1 HTRF FRET Assay; format: biochemical; conditions: Ki calculated from IC50 using the Cheng-Prusoff equation; QSY7-APPswe-Eu substrate 200 nM, pH 5.0
soluble human BACE1 catalytic domain, sequence (P56817 75-416 limits assumed): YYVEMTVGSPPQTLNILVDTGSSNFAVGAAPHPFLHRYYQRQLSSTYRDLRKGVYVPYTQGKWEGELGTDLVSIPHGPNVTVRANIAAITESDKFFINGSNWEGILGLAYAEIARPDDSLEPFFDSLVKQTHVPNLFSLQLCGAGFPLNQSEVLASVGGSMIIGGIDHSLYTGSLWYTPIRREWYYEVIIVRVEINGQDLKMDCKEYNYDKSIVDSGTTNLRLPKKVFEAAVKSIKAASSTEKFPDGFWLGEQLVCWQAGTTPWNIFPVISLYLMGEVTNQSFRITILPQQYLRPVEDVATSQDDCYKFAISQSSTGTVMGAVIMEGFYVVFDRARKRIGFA
Source text: Na^+-Acetate pH 5.0; 1% Brij-35; Glycerol; Dimethyl Sulfoxide (DMSO); Recombinant human soluble BACE1 catalytic domain (>95% pure); APP Swedish mutant peptide substrate (QSY7-APP^swe-Eu): QSY7-EISEVNLDAEFC-Europium-amide.
A homogeneous time-resolved FRET assay can be used to determine IC50 values for inhibitors of the soluble human BACE1 catalytic domain. This assay monitors the increase of 620 nm fluorescence that resulted from BACE1 cleavage of an APPswedish APP^swe mutant peptide FRET substrate (QSY7-EISEVNLDAEFC-Europium-amide). This substrate contains an N-terminal QSY7 moiety that serves as a quencher of the C-terminal Europium fluorophore (620 nm Em). In the absence of enzyme activity, 620 nm fluorescence is low in the assay and increased linearly over 3 hours in the presence of uninhibited BACE1 enzyme. Inhibition of BACE1 cleavage of the QSY7-APP^swe-Eu substrate by inhibitors is manifested as a suppression of 620 nm fluorescence.
Varying concentrations of inhibitors at 3× the final desired concentration in a volume of 10 ul are preincubated with purified human BACE1 catalytic domain (3 nM in 10 μl) for 30 minutes at 30° C. in reaction buffer containing 20 mM Na-Acetate pH 5.0, 10% glycerol, 0.1% Brij-35 and 7.5% DSMO. Reactions are initiated by addition of 10 μl of 600 nM QSY7-APP^swe-Eu substrate (200 nM final) to give a final reaction volume of 30 μl in a 384 well Nunc HTRF plate. The reactions are incubated at 30° C. for 1.5 hours. The 620 nm fluorescence is then read on a Rubystar HTRF plate reader (BMG Labtechnologies) using a 50 millisecond delay followed by a 400 millisecond acquisition time window. Inhibitor IC50 values are derived from non-linear regression analysis of concentration response curves. Ki values are then calculated from IC50 values using the Cheng-Prusoff equation using a previously determined […] for the QSY7-APP^swe-Eu substrate at BACE1.

With `CC1(C)C(=N)N[C@@]2(CCCc3ccc(NC(=O)c4cnc(C(F)(F)F)cn4)cc32)CS1(=O)=O` [Example G-12] the Ki [1] was 163 nM and the Ki [2] was 57 nM.
Compound `Cc1nc(C(=O)Nc2ccc3c(c2)[C@]2(CCC3)CS(=O)(=O)C(C)(C)C(=N)N2)no1` [Example G-13] has a Ki [1] of 6 nM and a Ki [2] of 83 nM.
Work on `CC1(C)C(=N)N[C@@]2(CCCc3ccc(NC(=O)c4ccc(F)cn4)cc32)CS1(=O)=O` [Example G-14] yielded a Ki [1] of 7 nM and a Ki [2] of 55 nM.
`CC1(C)C(=N)N[C@@]2(CCCc3ccc(NC(=O)c4ccc(OC(F)F)cn4)cc32)CS1(=O)=O` [Example G-15] was tested, and the Ki [1] was 22 nM and the Ki [2] was 12 nM.
`CC1(C)C(=N)N[C@@]2(CCCc3ccc(NC(=O)c4ccc(OC(F)(F)F)cn4)cc32)CS1(=O)=O` [Example G-16] was tested, and the Ki [1] was 51 nM and the Ki [2] was 13 nM.
`CC1(C)C(=N)N[C@@]2(CCCc3ccc(NC(=O)c4cnc(OCCF)cn4)cc32)CS1(=O)=O` [Example G-17] was tested, and the Ki [1] was 156 nM and the Ki [2] was 140 nM.
`CC1(C)C(=N)N[C@@]2(CCCc3ccc(NC(=O)c4ccc(OCF)cn4)cc32)CS1(=O)=O` [Example G-18] showed a Ki [1] of 7 nM and a Ki [2] of 18 nM.
In the case of `Cc1nc(C(=O)Nc2ccc3c(c2)[C@]2(CCC3)CS(=O)(=O)C(C)(C)C(=N)N2)co1` [Example G-19], the Ki [1] is reported as 3 nM and the Ki [2] is reported as 21 nM.
For `COc1ccc(C(=O)Nc2ccc3c(c2)[C@]2(CCC3)CS(=O)(=O)C(C)(C)C(=N)N2)nc1` [Example G-20], the Ki [1] was 7 nM and the Ki [2] was 31 nM.
Work on `CC1(C)C(=N)N[C@@]2(CCCc3ccc(NC(=O)c4ccc(C#N)cn4)cc32)CS1(=O)=O` [Example G-21] yielded a Ki [1] of 12 nM and a Ki [2] of 4 nM.
`CC1(C)C(=N)N[C@@]2(CCCc3ccc(NC(=O)c4ncc(C(F)(F)F)cn4)cc32)CS1(=O)=O` [Example G-22] gave a Ki [1] of 161 nM and a Ki [2] of 160 nM.
In the case of `CC1(C)C(=N)N[C@@]2(CCCc3ccc(NC(=O)c4cn5cc(C#N)ccc5n4)cc32)CS1(=O)=O` [Example G-23], the Ki [1] is reported as 1120 nM and the Ki [2] is reported as 138 nM.
For `CC1(C)C(=N)N[C@@]2(CCCc3ccc(NC(=O)c4ccc(C(F)(F)F)cn4)cc32)CS1(=O)=O` [Example G-24], the Ki [1] was 30 nM and the Ki [2] was 8 nM.
